Data published in US20250154173A1 (Merck Sharp & Dohme LLC, priority 2023, published 2025).

Biological target: T1, GST-RIPK1 (recombinant GST-RIPK1 kinase domain (residues 1-327)) (Homo sapiens, UniProt Q13546)
T1 construct: recombinant GST-RIPK1 kinase domain (residues 1-327) enzyme produced from baculovirus-transfected Sf21 cells; host or cells: baculovirus-transfected Sf21 insect cells
T1 sequence (Q13546 1-327): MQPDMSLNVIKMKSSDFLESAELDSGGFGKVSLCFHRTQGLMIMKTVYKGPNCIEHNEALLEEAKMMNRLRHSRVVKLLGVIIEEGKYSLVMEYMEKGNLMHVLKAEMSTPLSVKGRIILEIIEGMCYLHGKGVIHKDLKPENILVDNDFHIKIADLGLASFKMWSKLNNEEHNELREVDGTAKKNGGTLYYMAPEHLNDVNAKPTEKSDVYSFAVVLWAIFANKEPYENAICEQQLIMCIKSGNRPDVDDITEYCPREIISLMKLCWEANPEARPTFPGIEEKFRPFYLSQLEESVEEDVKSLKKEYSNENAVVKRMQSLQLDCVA
Test: RIPK1-ADP-Glo Enzymatic Assay
Format: biochemical
Details: ten-point titration, top compound concentration of 100000 nM; 25 nM GST-RIPK1, 300 μM ATP, 3 μM dephosphorylated-MBP; 30 min pre-incubation, 150 min reaction
Experimental: RIPK1-ADP-Glo Enzymatic Assay
The enzymatic activity of RIPK1 is measured using an assay derived from ADP-Glo kit (TMPromega), which provides a luminescent-based ADP detection system. Specifically, the ADP generated by RIPK1 kinase is proportionally detected as luminescent signals in a homogenous fashion. In this context, the assessment of the inhibitory effect of small molecules (EC50) is measured by the effectiveness of the compounds to inhibit the ATP to ADP conversion by RIPK1.
In this assay, the potency (EC50) of each compound was determined from a ten-point (1:3 serial dilution; top compound concentration of 100000 nM) titration curve using the following outlined procedure. To each well of a white ProxiPlus 384 well-plate, 30 nL of compound (1% DMSO in final assay volume of 3 μL) was dispensed, followed by the addition of 2 μL of 1× assay buffer (25 mM Hepes 7.3, 20 mM MgCl2, 50 mM NaCl, 1 mM DTT, 0.005% Tween20, and 0.02% BSA) containing 37.5 nM of GST-RIPK1 (recombinant GST-RIPK1 kinase domain (residues 1-327) enzyme produced from baculovirus-transfected Sf21 cells: MW=62 kDa). Plates were placed in an ambient temperature humidified chamber for a 30 minutes pre-incubation with compound. Subsequently, each reaction was initiated by the addition of 1 μL 1× assay buffer containing 900 μM ATP and 3 μM dephosphorylated-MBP substrate. The final reaction in each well of 3 μL consists of 25 nM of GST-RIPK1, 300 μM ATP, and 3 μM dephosphorylated-MBP. Kinase reactions were allowed to proceed for 150 minutes prior to adding ADP-Glo reagents per Promega's outlined kit protocol. Dose-response curves were generated by plotting percent effect (% product conversion; Y-axis) vs. Log 10 compound concentrations (X-axis). EC50 values were calculated using a non-linear regression, four-parameters sigmoidal dose-response model.

Compound	EC50 [nM]
O=C1N2C(CC[C@H]2c2cnccn2)OC12CC(OCc1ccc(N3CCOCC3)nc1)C2 (stereo partly drawn) [Example 18.35, (5′S)-3-{[6-(morpholin-4-yl)pyridin-3-yl]methoxy}-5′-(pyrazin-2-yl)tetrahydro-3′H-spiro[cyclobutane-1,2′-pyrrolo[2,1-b][1,3]oxazol]-3′-one]	14
N#Cc1ccc2c(O[C@H]3C[C@@]4(C3)O[C@@H]3CC[C@@H](c5ccc(F)cc5)N3C4=O)ncnn12 [Example 11.3, 4-(((1r,3R,5′S,7a′R)-5′-(4-fluorophenyl)-3′-oxotetrahydro-3′H-spiro[cyclobutane-1,2′-pyrrolo[2,1-b]oxazol]-3-yl)oxy)pyrrolo[2,1-f][1,2,4]triazine-7-carbonitrile]	19
N#Cc1ncccc1O[C@H]1C[C@@]2(C1)O[C@@H]1CC[C@@H](c3ccccc3)N1C2=O [Example 9.14, 3-{[(1r,3R,5′S,7a′R)-3′-oxo-5′-phenyltetrahydro-3′H-spiro[cyclobutane-1,2′-pyrrolo[2,1-b][1,3]oxazol]-3-yl]oxy}pyridine-2-carbonitrile]	139
N#Cc1ccncc1COC1CC2(C1)OC1CC[C@@H](c3cnccn3)N1C2=O (stereo partly drawn) [Example 18.93, 3-({[(5′S)-3′-oxo-5′-(pyrazin-2-yl)tetrahydro-3′H-spiro[cyclobutane-1,2′-pyrrolo[2,1-b][1,3]oxazol]-3-yl]oxy}methyl)pyridine-4-carbonitrile]	329
O=C1N2[C@@H](CC[C@H]2c2cc(F)cc(F)c2)OC12CC(Oc1ncccc1F)C2 (stereo partly drawn) [Example 9.38, (5′S,7a′R)-5′-(3,5-difluorophenyl)-3-[(3-fluoropyridin-2-yl)oxy]tetrahydro-3′H-spiro[cyclobutane-1,2′-pyrrolo[2,1-b][1,3]oxazol]-3′-one]	29
Cc1cn(-c2cc(OC3CC4(C3)O[C@@H]3CC[C@@H](c5cc(F)cc(F)c5)N3C4=O)ncn2)cn1 (stereo partly drawn) [Example 9.11, (5′S,7a′R)-5′-(3,5-difluorophenyl)-3-{[6-(4-methyl-1H-imidazol-1-yl)pyrimidin-4-yl]oxy}tetrahydro-3′H-spiro[cyclobutane-1,2′-pyrrolo[2,1-b][1,3]oxazol]-3′-one]	21
N#Cc1cccc(OC2CC3(C2)O[C@@H]2CC[C@@H](c4cnccn4)N2C3=O)c1 (stereo partly drawn) [Example 19.3, 3-{[(5′S,7a′R)-3′-oxo-5′-(pyrazin-2-yl)tetrahydro-3′H-spiro[cyclobutane-1,2′-pyrrolo[2,1-b][1,3]oxazol]-3-yl]oxy}benzonitrile]	20
O=C1N2[C@@H](CC[C@H]2c2ccccc2)OC12CC(Oc1cccc(F)c1)C2 (stereo partly drawn) [Example 8.10, (5′S,7a′R)-3-(3-fluorophenoxy)-5′-phenyltetrahydro-3′H-spiro[cyclobutane-1,2′-pyrrolo[2,1-b][1,3]oxazol]-3′-one]	11
Cc1nc(O[C@H]2C[C@@]3(C2)O[C@@H]2CC[C@@H](c4cc(F)cc(F)c4)N2C3=O)c2cccn2n1 [Example 9.29, (1r,3R,5′S,7a′R)-5′-(3,5-difluorophenyl)-3-[(2-methylpyrrolo[2,1-f][1,2,4]triazin-4-yl)oxy]tetrahydro-3′H-spiro[cyclobutane-1,2′-pyrrolo[2,1-b][1,3]oxazol]-3′-one]	47
Cc1cnn(-c2cnc(COC3CC4(C3)OC3CC[C@@H](c5cnccn5)N3C4=O)cn2)c1 (stereo partly drawn) [Example 18.15, (5′S)-3-{[5-(4-methyl-1H-pyrazol-1-yl)pyrazin-2-yl]methoxy}-5′-(pyrazin-2-yl)tetrahydro-3′H-spiro[cyclobutane-1,2′-pyrrolo[2,1-b][1,3]oxazol]-3′-one]	76
O=C(O[C@H]1C[C@@]2(C1)O[C@@H]1CC[C@@H](c3cc(F)cc(F)c3)N1C2=O)c1ccccc1 [Example 14, (1r,3R,5′S,7a′R)-5′-(3,5-difluorophenyl)-3′-oxotetrahydro-3′H-spiro[cyclobutane-1,2′-pyrrolo[2,1-b]oxazol]-3-yl benzoate]	13
Cc1nnc(-c2cc(O[C@H]3C[C@@]4(C3)O[C@@H]3CC[C@@H](c5cc(F)cc(F)c5)N3C4=O)ncn2)o1 [Example 9.53, (5′S,7a′R)-5′-(3,5-difluorophenyl)-3-((6-(5-methyl-1,3,4-oxadiazol-2-yl)pyrimidin-4-yl)oxy)tetrahydro-3′H-spiro[cyclobutane-1,2′-pyrrolo[2,1-b]oxazol]-3′-one]	50
O=C1N2[C@@H](CC[C@H]2c2ccccc2)OC12CCC(OCc1ccccc1)CC2 (single isomer, unassigned) [Example 1.2, ((1s or r),4R,5′S,7a′R)-4-(benzyloxy)-5′-phenyltetrahydro-3′H-spiro[cyclohexane-1,2′-pyrrolo[2,1-b]oxazol]-3′-one]	138
O=C1N2[C@@H](CC[C@H]2c2cnccn2)OC12CC(OCc1ccc3cnoc3c1)C2 (stereo partly drawn) [Example 18.110, (5′S,7a′R)-3-(benzo[d]isoxazol-6-ylmethoxy)-5′-(pyrazin-2-yl)tetrahydro-3′H-spiro[cyclobutane-1,2′-pyrrolo [2,1-b]oxazol]-3′-one]	44
CS(=O)(=O)c1ccc(COC2CC3(C2)OC2CC[C@@H](c4cnccn4)N2C3=O)cc1 (stereo partly drawn) [Example 18.17, (5′S)-3-{[4-(methylsulfonyl)phenyl]methoxy}-5′-(pyrazin-2-yl)tetrahydro-3′H-spiro[cyclobutane-1,2′-pyrrolo[2,1-b][1,3]oxazol]-3′-one]	145
N#Cc1cc(O[C@H]2C[C@@]3(C2)O[C@@H]2CC[C@@H](c4ccc(F)cc4)N2C3=O)ncn1 [Example 9.1, 6-(((1r,3R,5′S,7a′R)-5′-(4-fluorophenyl)-3′-oxotetrahydro-3′H-spiro[cyclobutane-1,2′-pyrrolo[2,1-b]oxazol]-3-yl)oxy)pyrimidine-4-carbonitrile]	14
CCc1nnc(-c2ccc(COC3CC4(C3)OC3CC[C@@H](c5cnccn5)N3C4=O)cc2)o1 (stereo partly drawn) [Example 18.56, (5′S)-3-{[4-(5-ethyl-1,3,4-oxadiazol-2-yl)phenyl]methoxy}-5′-(pyrazin-2-yl)tetrahydro-3′H-spiro[cyclobutane-1,2′-pyrrolo[2,1-b][1,3]oxazol]-3′-one]	11
O=C1N2C(CC[C@H]2c2cnccn2)OC12CC(OCc1ccccc1-n1cccn1)C2 (stereo partly drawn) [Example 18.53, (5′S)-5′-(pyrazin-2-yl)-3-{[2-(1H-pyrazol-1-yl)phenyl]methoxy}tetrahydro-3′H-spiro[cyclobutane-1,2′-pyrrolo[2,1-b][1,3]oxazol]-3′-one]	117
NC(=O)c1ccnc(O[C@H]2C[C@@]3(C2)O[C@@H]2CC[C@@H](c4ccc(F)cc4)N2C3=O)c1 [Example 10.6, 2-(((1r,3R,5′S,7a′R)-5′-(4-fluorophenyl)-3′-oxotetrahydro-3′H-spiro[cyclobutane-1,2′-pyrrolo[2,1-b]oxazol]-3-yl)oxy)isonicotinamide]	52
COc1ccc(C#N)nc1COC1CC2(C1)OC1CC[C@@H](c3cnccn3)N1C2=O (stereo partly drawn) [Example 18.75, 5-methoxy-6-({[(5′S)-3′-oxo-5′-(pyrazin-2-yl)tetrahydro-3′H-spiro[cyclobutane-1,2′-pyrrolo[2,1-b][1,3]oxazol]-3-yl]oxy}methyl)pyridine-2-carbonitrile]	896
N#Cc1cc(O[C@H]2C[C@@]3(C2)O[C@@H]2CC[C@@H](c4ccc(F)cn4)N2C3=O)ncn1 [Example 9.47, 6-{[(5′S,7a′R)-5′-(5-fluoropyridin-2-yl)-3′-oxotetrahydro-3′H-spiro[cyclobutane-1,2′-pyrrolo[2,1-b][1,3]oxazol]-3-yl]oxy}pyrimidine-4-carbonitrile]	24
O=C1N2C(CC[C@H]2c2cnccn2)OC12CC(OCc1ccc3nc(C(F)(F)F)sc3c1)C2 (some centres unmarked) [Example 18.48]	31
O=C1N2[C@H](O[C@]13C[C@@H](OCc1ccccc1)C3)[C@@H](O)C[C@H]2c1cnccn1 [Example 21.1, (1s,3S,5′S,7′S,7a′R)-3-(benzyloxy)-7′-hydroxy-5′-(pyrazin-2-yl)tetrahydro-3′H-spiro[cyclobutane-1,2′-pyrrolo[2,1-b]oxazol]-3′-one]	255
